Measurements: US11053243B2 (Merck Sharp & Dohme Corp., priority 2009, dated 2021)

What follows are compounds tested on HCV genotype 1b replicon (assay: HCV replicon assay, genotype 1b). Details: Hepatitis C virus; genotype 1b replicon cells, 24 to 72 hours incubation, luciferase activity.
Format: cell-based, hepatitis C virus
Method: The HCV replicons and NS5A inhibitory activity of the present compounds may be tested using assays known in the art. HCV inhibitors, such as those described in the Examples herein have activities in genotype 1b, 2a and 1a replicon assays of from about 1 pM to about 1 μM. The assay is performed by incubating a replicon harboring cell-line in the presence of inhibitor for a set period of time and measuring the effect of the inhibitor on HCV replicon replication either directly by quantifying replicon RNA level, or indirectly by measuring enzymatic activity of a co-encoded reporter enzyme such as luciferase or β-lactamase. By performing a series of such measurements at different inhibitor concentrations, the effective inhibitory concentration of the inhibitor (EC50 or EC90) is determined. See Jan M. Vrolijk et al., A replicons-based bioassay for the measurement of interferons in patients with chronic hepatitis C, 110 J. VIROLOGICAL METHODS 201 (2003). Such assays may also be run in an automated format for high through-put screening. See Paul Zuck et al., A cell-based β-lactamase reporter gene assay for the identification of inhibitors of hepatitis C virus replication, 334 ANALYTICAL BIOCHEMISTRY 344 (2004).
Measurement of inhibition by compounds was performed using the HCV replicon system. Several different replicons encoding different HCV genotypes or mutations were used. In addition, potency measurements were made using different formats of the replicon assay, including different ways of measurements and different plating formats. See Jan M. Vrolijk et al., A replicons-based bioassay for the measurement of interferons in patients with chronic hepatitis C, 110 J. VIROLOGICAL METHODS 201 (2003); Steven S. Carroll et al., Inhibition of Hepatitis C Virus RNA Replication by 2′-Modified Nucleoside Analogs, 278(14) J. BIOLOGICAL CHEMISTRY 11979 (2003). However, the underlying principles are common to all of these determinations, and are outlined below.
Stable neomycin phosphotransferase encoding replicon-harboring cell lines were used, so all cell lines were maintained under G418 selection prior to the assay. In some cases, the cell lines encoded a luciferase:Neor fusion and could be assayed either directly by determination of RNA copy number, or indirectly through measurement of the luciferase activity.
To initiate an assay, replicon cells were plated in the presence of a dilution series of test compound in the absence of G418. Typically, the assays were performed in a 96-well plate format for manual operation, or a 384-well plate in an automated assay. Replicon cells and compound were incubated for 24 to 72 hours. At the end of the assay, cells are washed free of media and compound and then lysed. Luciferase activity was measured using a conventional luciferase assay. EC50 determinations were calculated as a percent of a DMSO control by fitting the data to a four parameter fit function.
The activity table below provides representative data illustrating observed activity against genotype 1b.

`CCN(CC)[C@@H](C(=O)N1CCC[C@H]1C(=O)Nc1ccc(-c2cc3cc(NC(=O)[C@@H]4CCCN4C(=O)[C@@H](c4ccccc4)N(CC)CC)ccc3[nH]2)cc1)c1ccccc1` [Example 62, (2S)-1-[(2R)-2-(diethylamino)-2-phenylacetyl]-N-(4-{5-[({(2S)-1-[(2R)-2-(diethylamino)-2-phenylacetyl]pyrrolidin-2-yl}carbonyl)amino]-1H-indol-2-yl}phenyl)pyrrolidine-2-carboxamide] and `CCN(CC)[C@@H](C(=O)N1CCC[C@H]1C(=O)Nc1ccc(-c2cc3cc(NC(=O)[C@@H]4CCCN4C(=O)[C@@H](c4ccccc4)N(CC)CC)ccc3o2)cc1)c1ccccc1` [Example 26, (2S)-1-[(2R)-2-(diethylamino)-2-phenylacetyl]-N-(4-{5-[({(2S)-1-[(2R)-2-(diethylamino)-2-phenylacetyl]pyrrolidin-2-yl}carbonyl)amino]-1-benzofuran-2-yl}phenyl)pyrrolidine-2-carboxamide] are within 1.5-fold of each other in EC50: 67 pM for the first, 63 pM for the second.

Compared with `CC(C)(C)OC(=O)N[C@@H](C(=O)N1CCC[C@H]1C(=O)Nc1ccc(-c2[nH]c3ccc(NC(=O)[C@@H]4CCCN4C(=O)[C@H](NC(=O)OC(C)(C)C)c4ccccc4)cc3c2C(=O)NC2CC2)cc1)c1ccccc1` [Example 158, tert-butyl {(1R)-2-[(2S)-2-({4-[5-({[(2S)-1-{(2R)-2-[(tert-butoxycarbonyl)amino]-2-phenylacetyl}pyrrolidin-2-yl]carbonyl}amino)-3-(cyclopropylcarbamoyl)-1H-indol-2-yl]phenyl}carbamoyl)pyrrolidin-1-yl]-2-oxo-1-phenylethyl}carbamate], `CC(C)(C)OC(=O)N[C@H](C(=O)N1CCC[C@H]1C(=O)Nc1ccc(-c2nc3cc(NC(=O)[C@@H]4CCCN4C(=O)[C@@H](NC(=O)OC(C)(C)C)c4ccccc4)ccc3[nH]2)cc1)c1ccccc1` [Example 14, tert-butyl {(1S)-2-[(2S)-2-({4-[5-({[(2S)-1-{(2S)-2-[(tert-butoxycarbonyl)amino]-2-phenylacetyl}pyrrolidin-2-yl]carbonyl}amino)-1H-benzimidazol-2-yl]phenyl}carbamoyl)pyrrolidin-1-yl]-2-oxo-1-phenylethyl}carbamate] is 20-fold higher in EC50: 500 pM for the first, 10000 pM for the second.

Compared with `CN(C)[C@H](C(=O)N1CCC[C@H]1C(=O)Nc1ccc2[nH]c(-c3ccc(-c4cnc([C@@H]5CCCN5C(=O)[C@H](c5ccccc5)N(C)C)[nH]4)cc3)cc2c1)c1ccccc1` [Example 103, 1-[(2S)-2-(dimethylamino)-2-phenylacetyl]-N-{2-[4-(2-{(2S)-1-[(2S)-2-(dimethylamino)-2-phenylacetyl]pyrrolidin-2-yl}-1H-imidazol-5-yl)phenyl]-1H-indol-5-yl}-L-prolinamide], `CC(C)OC(=O)N[C@@H](C(=O)N1CCC[C@H]1C(=O)Nc1ccc2[nH]c(-c3ccc(-c4ncc([C@@H]5CCCN5C(=O)[C@H](NC(=O)OC(C)C)c5ccccc5)[nH]4)cc3)cc2c1)c1ccccc1` [Example 119, propan-2-yl [(1R)-2-oxo-1-phenyl-2-{(2S)-2-[2-(4-{5-[({(2S)-1-[(2R)-2-phenyl-2-{[(propan-2-yloxy)carbonyl]amino}acetyl]pyrrolidin-2-yl}carbonyl)amino]-1H-indol-2-yl}phenyl)-1H-imidazol-5-yl]pyrrolidin-1-yl}ethyl]carbamate] is 440-fold lower in EC50: 5700 pM for the first, 13 pM for the second. The second is the more potent here.

Going from `CC(C)(C)OC(=O)N[C@@H](C(=O)N1CCC[C@H]1C(=O)Nc1ccc2[nH]c(-c3ccc(-c4c[nH]cn4)cc3)cc2c1)c1ccccc1` [Example 102, tert-butyl {(1R)-2-[(2S)-2-({2-[4-(1H-imidazol-4-yl)phenyl]-1H-indol-5-yl}carbamoyl)pyrrolidin-1-yl]-2-oxo-1-phenylethyl}carbamate] to `CC(C)(C)OC(=O)N[C@H](C(=O)N1CCC[C@H]1C(=O)Nc1ccc(-c2cc3cc(C#N)ccc3[nH]2)cc1)c1ccccc1` [Example 186, tert-butyl {(1S)-2-[(2S)-2-{[4-(5-cyano-1H-indol-2-yl)phenyl]carbamoyl}pyrrolidin-1-yl]-2-oxo-1-phenylethyl}carbamate], the EC50 falls from 8300 pM to 15 pM (550-fold).

First: CC(=O)Nc1ccc(-c2cc3cc(NC(=O)[C@@H]4CCCN4C(=O)[C@H](NC(=O)OC(C)(C)C)c4ccccc4)ccc3o2)cc1 [Example 19, N-{2-[4-(acetylamino)phenyl]-1-benzofuran-5-yl}-1-{(2R)-2-[(tert-butoxycarbonyl)amino]-2-phenylacetyl}-L-prolinamide]
Second: CC(=O)N1CCC[C@H]1C(=O)Nc1ccc(-c2[nH]c3ccc(NC(=O)[C@@H]4CCCN4C(=O)[C@H](NC(=O)OC(C)(C)C)c4ccccc4)cc3c2F)cc1 [Example 137, tert-butyl {(1R)-2-[(2S)-2-({2-[4-({[(2S)-1-acetylpyrrolidin-2-yl]carbonyl}amino)phenyl]-3-fluoro-1H-indol-5-yl}carbamoyl)pyrrolidin-1-yl]-2-oxo-1-phenylethyl}carbamate]
The EC50 of the first is 2800-fold higher: 25000 pM for the first, 9 pM for the second. The second is the more potent here.

Compared with `Cc1cccc(-c2c(-c3ccc(NC(=O)[C@@H]4CCCN4C(=O)[C@H](NC(=O)OC(C)(C)C)c4ccccc4)cc3)[nH]c3ccc(NC(=O)[C@@H]4CCCN4C(=O)[C@H](NC(=O)OC(C)(C)C)c4ccccc4)cc23)c1` [Example 169, tert-butyl {(1R)-2-[(2S)-2-({4-[5-({[(2S)-1-{(2R)-2-[(tert-butoxycarbonyl)amino]-2-phenylacetyl}pyrrolidin-2-yl]carbonyl}amino)-3-(3-methylphenyl)-1H-indol-2-yl]phenyl}carbamoyl)pyrrolidin-1-yl]-2-oxo-1-phenylethyl}carbamate], `CC(C)(C)OC(=O)N[C@@H](C(=O)N1CCC[C@H]1C(=O)Nc1ccc(-c2nc3cc(NC(=O)[C@@H]4CCCN4C(=O)[C@H](NC(=O)OC(C)(C)C)c4ccccc4)ccc3[nH]2)cc1)c1ccccc1` [Example 15, tert-butyl {(1R)-2-[(2S)-2-({4-[5-({[(2S)-1-{(2R)-2-[(tert-butoxycarbonyl)amino]-2-phenylacetyl}pyrrolidin-2-yl]carbonyl}amino)-1H-benzimidazol-2-yl]phenyl}carbamoyl)pyrrolidin-1-yl]-2-oxo-1-phenylethyl}carbamate] is 11-fold higher in EC50: 4 pM for the first, 45 pM for the second. The first is the more potent here.

Compared with `CC(C)(C)OC(=O)N[C@@H](C(=O)N1CCC[C@H]1C(=O)Nc1ccc2[nH]c(-c3ccc4[nH]c([C@@H]5CCCN5C(=O)[C@H](NC(=O)OC(C)(C)C)c5ccccc5)nc4c3)cc2c1)c1ccccc1` [Example 125, tert-butyl [(1R)-2-{(2S)-2-[(2-{2-[(2S)-1-{(2R)-2-[(tert-butoxycarbonyl)amino]-2-phenylacetyl}pyrrolidin-2-yl]-1H-benzimidazol-5-yl}-1H-indol-5-yl)carbamoyl]pyrrolidin-1-yl}-2-oxo-1-phenylethyl]carbamate], `O=C(Nc1ccc(-c2cc3cc(NC(=O)[C@@H]4CCCN4C(=O)C(Cc4ccccc4)c4ccccc4)ccc3[nH]2)cc1)[C@@H]1CCCN1C(=O)C(Cc1ccccc1)c1ccccc1` (some centres unmarked) [Example 49] is 4.5-fold higher in EC50: 16 pM for the first, 72 pM for the second. The first is the more potent here.

In the case of `O=C(Nc1ccc(-c2[nH]c3ncc(NC(=O)[C@@H]4CCCN4C(=O)Cc4ccccc4)cc3c2Cl)cc1)[C@@H]1CCCN1C(=O)Cc1ccccc1` [Example 6, (2S)—N-{3-chloro-2-[4-({[(2S)-1-(phenylacetyl)pyrrolidin-2-yl]carbonyl}amino)phenyl]-1H-pyrrolo[2,3-b]pyridin-5-yl}-1-(phenylacetyl)pyrrolidine-2-carboxamide], the EC50 is reported as 200000 pM.

Same assay, conditions: genotype 1b replicon cells, 24 to 72 hours incubation, luciferase activity

First: CN(C)[C@@H](C(=O)N1CCC[C@H]1C(=O)Nc1ccc2[nH]c(-c3nc4cc(NC(=O)[C@@H]5CCCN5C(=O)[C@@H](c5ccccc5)N(C)C)ccc4o3)cc2c1)c1ccccc1 [Example 190, (2S)-1-[(2R)-2-(dimethylamino)-2-phenylacetyl]-N-(2-{5-[({(2S)-1-[(2R)-2-(dimethylamino)-2-phenylacetyl]pyrrolidin-2-yl}carbonyl)amino]-1,3-benzoxazol-2-yl}-1H-indol-5-yl)pyrrolidine-2-carboxamide]
Second: CN(C)[C@@H](C(=O)N1CCC[C@H]1C(=O)Nc1ccc2[nH]c(-c3ccc(NC(=O)[C@@H]4CCCN4C(=O)[C@H]4CCCO4)cc3)cc2c1)c1ccccc1 [Example 72]
The EC50 of the first is 2.5-fold lower: 67 pM for the first, 170 pM for the second.
